# From article PMC5557986 (Scientific Reports, 2017)
# Experiments:
# [1] = molecular target: Clostridium perfringens NanJ NA (CpNA) (Clostridium perfringens, UniProt A0A0H2YT71); type: biochemical
# [2] = molecular target: A/RI/5+/1957(H2N2) NA (N2) (Influenza A virus, UniProt Q194T1); assay: biochemical; type: biochemical, influenza A/RI/5+/1957(H2N2)
# [3] = system: Streptococcus 6646K NA (StrepNA); type: biochemical
# N2 = details: cited from earlier work
# influenza NA = details: cited from earlier work
# Clostridium perfringens NanJ NA (CpNA), sequence (A0A0H2YT71 27-1173 limits assumed): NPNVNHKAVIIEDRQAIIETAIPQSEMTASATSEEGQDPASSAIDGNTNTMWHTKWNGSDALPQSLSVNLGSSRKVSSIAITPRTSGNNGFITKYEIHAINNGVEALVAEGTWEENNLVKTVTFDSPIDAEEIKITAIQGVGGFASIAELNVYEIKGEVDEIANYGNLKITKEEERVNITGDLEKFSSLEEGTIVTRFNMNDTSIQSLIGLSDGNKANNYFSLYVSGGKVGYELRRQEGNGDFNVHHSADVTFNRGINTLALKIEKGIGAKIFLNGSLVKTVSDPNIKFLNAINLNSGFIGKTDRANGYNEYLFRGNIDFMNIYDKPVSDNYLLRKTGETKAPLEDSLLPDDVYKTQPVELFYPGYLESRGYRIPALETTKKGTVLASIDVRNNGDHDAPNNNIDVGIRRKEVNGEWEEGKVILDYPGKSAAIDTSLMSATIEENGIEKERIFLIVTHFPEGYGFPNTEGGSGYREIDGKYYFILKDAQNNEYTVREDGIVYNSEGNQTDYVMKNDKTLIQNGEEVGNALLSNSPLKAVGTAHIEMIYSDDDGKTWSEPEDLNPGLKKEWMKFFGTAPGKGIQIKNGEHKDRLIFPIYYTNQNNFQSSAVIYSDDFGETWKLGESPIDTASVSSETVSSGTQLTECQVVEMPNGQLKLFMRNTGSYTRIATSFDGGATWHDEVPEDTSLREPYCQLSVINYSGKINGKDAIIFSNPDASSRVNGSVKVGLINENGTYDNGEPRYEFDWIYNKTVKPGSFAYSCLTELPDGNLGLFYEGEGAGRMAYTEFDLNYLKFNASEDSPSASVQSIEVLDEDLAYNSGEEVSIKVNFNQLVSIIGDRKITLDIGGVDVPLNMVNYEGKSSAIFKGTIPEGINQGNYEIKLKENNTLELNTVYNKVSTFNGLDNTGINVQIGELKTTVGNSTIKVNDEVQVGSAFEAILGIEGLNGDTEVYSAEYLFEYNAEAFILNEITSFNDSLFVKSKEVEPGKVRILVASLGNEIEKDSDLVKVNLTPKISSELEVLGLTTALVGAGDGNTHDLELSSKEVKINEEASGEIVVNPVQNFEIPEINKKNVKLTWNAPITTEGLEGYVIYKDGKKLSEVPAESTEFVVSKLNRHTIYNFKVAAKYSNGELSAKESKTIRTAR
Compound,IC50 [2] [µM],Ki [2] [µM],inhibition of influenza NA (influenza NA),also measured
"CC(=O)N[C@H]1[C@H]([C@H](O)[C@H](O)CO)O[C@H](S(=O)(=O)O)C[C@@H]1O [7a, 4-Acetamido-1-sulfo-1,2,4-trideoxy-D-glycero-D-galacto-octopyranose]",8.86,2.47,–,potency for CpNA inhibition relative to eqPO3H [1]: 8.5 fold; IC50 ([1]; read-out: CpNA IC50): 37.5 µM; potency for inhibition of influenza N2 relative to eqPO3H [2]: 40 fold; IC50 [3]: 3.74 µM
"CC(=O)N[C@H]1[C@H]([C@H](O)[C@H](O)CO)O[C@@H](S(=O)(=O)O)C[C@@H]1O [7b, 4-Acetamido-1-sulfo-1,2,4-trideoxy-D-glycero-D-galacto-octopyranose]",120,33.5,–,–
"CC(=O)N[C@@H]1C=C[C@H](S(=O)(=O)O)O[C@H]1[C@H](O)[C@H](O)CO [8b, 4-Acetamido-1-sufo-2,3-didehydro-1,2,3,4-tetradeoxy-D-glycero-D-galacto-octopyranose]",316,88.1,–,–
"CC(=O)N[C@H]1[C@H]([C@H](O)[C@H](O)CO)OC(C(=O)O)=C[C@@H]1O [Neu4Ac2en, 2,3-dehydro-2-deoxy-N-acetylneuraminic acid]",–,–,–,IC50 (N2): 19 µM
[H]/N=C(\N)N[C@H]1C=C(C(=O)O)O[C@@H]([C@H](OC)[C@H](O)CO)[C@@H]1NC(C)=O [laninamivir],–,–,low nanomolar level,–
CCOC(=O)C1=C[C@@H](OC(CC)CC)[C@H](NC(C)=O)[C@@H](N)C1 [oseltamivir],–,–,low nanomolar level,–
CC(=O)N[C@H]1[C@H]([C@H](O)[C@H](O)CO)OC(C(=O)O)=C[C@@H]1N=C(N)N [zanamivir],–,–,low nanomolar level,–
peramivir,–,–,low nanomolar level,–
